Laboratory results published in publication PMC6271731, “Multitarget Molecular Hybrids of Cinnamic Acids” (Molecules, 2014).
Where two headings read alike, the source gives them in different places. Marks after values point to notes of the source that are not given here.

Tests used:
[1] = Lipophilicity as RM values by RP-TLC; format: physicochemical; conditions: methanol/water 70/30, 24 °C, average of at least five measurements
Description: Since lipophilicity is a significant physicochemical property determining distribution, bioavailability, metabolic activity and elimination, we tried to determine experimentally the lipophilicity of the new substances by a RPTLC method as RM values (Table 1) and to compare them with the corresponding theoretically calculated clog p values in n-octanol-buffer. This is considered to be a reliable, fast and convenient method for expressing lipophilicity. Lipophilicity (Table 2), was theoretically calculated as Clog p values in n-octanol-buffer by the CLOGP Programme of Biobyte Corp..
Reversed phase TLC (RP-TLC) was performed on silica gel plates impregnated with 5% (v/v) liquid paraffin in light petroleum ether. The mobile phase was a methanol/water mixture (70/30, v/v). The plates were developed in closed chromatography tanks saturated with the mobile phase at 24 °C. Spots were detected under UV light. RM values were determined from the corresponding Rf values (from five individual measurements) using the equation RM = log [(1/Rf) − 1] (Table 1).

[2] = Inhibition of linoleic acid lipid peroxidation (AAPH); conditions: % inhibition at 100 μM; pH 7.4, 37 °C
Description: Production of conjugated diene hydroperoxide by oxidation of sodium linoleate in an aqueous dispersion is monitored at 234 nm. AAPH is used as a free radical initiator [12, 24]. Ten microlitres of the 16 mM sodium linoleate solution was added to the UV cuvette containing 930 μL of 0.05 M phosphate buffer, pH 7.4 prethermostated at 37 °C. The oxidation reaction was initiated at 37 °C under air by the addition of 40 mM AAPH solution (50 μL). Ten μL of the tested compounds were added in the mixture. Lipid oxidation was measured in the presence of the same level of DMSO. The rate of oxidation at 37 °C was monitored by recording the increase in absorption at 234 nm caused by conjugated diene hydroperoxides. The results were compared to the appropriate standard inhibitor trolox (63%) (Table 1).

soybean lipoxygenase = biological target: T1, soybean lipoxygenase (Glycine max, UniProt P08170); test: Soybean lipoxygenase inhibition in vitro; format: biochemical
T1 construct: purchased Sigma Chemical, Co. (St. Louis, MO, USA)
T1 sequence (P08170 1-839): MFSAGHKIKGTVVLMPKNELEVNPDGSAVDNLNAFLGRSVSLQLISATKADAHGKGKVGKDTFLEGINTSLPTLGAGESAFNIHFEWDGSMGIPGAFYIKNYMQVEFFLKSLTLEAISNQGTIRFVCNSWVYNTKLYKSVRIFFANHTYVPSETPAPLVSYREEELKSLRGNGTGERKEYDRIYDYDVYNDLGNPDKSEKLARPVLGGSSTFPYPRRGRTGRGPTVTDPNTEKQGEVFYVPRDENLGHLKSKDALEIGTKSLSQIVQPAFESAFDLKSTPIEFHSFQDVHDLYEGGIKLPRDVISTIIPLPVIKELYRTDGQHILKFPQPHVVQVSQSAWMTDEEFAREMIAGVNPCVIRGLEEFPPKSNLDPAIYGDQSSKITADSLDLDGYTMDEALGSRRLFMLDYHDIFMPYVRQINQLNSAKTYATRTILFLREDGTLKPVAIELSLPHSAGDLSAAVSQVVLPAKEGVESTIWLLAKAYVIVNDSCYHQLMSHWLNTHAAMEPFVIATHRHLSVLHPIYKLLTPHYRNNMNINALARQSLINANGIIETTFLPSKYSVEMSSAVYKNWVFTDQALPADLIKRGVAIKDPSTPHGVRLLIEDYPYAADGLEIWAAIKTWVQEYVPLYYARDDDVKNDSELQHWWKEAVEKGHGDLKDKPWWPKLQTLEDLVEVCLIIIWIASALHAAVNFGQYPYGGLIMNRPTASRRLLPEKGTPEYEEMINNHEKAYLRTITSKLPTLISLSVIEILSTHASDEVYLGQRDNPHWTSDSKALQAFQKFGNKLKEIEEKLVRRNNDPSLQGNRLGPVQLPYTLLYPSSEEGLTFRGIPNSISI
Description: DMSO solution of the tested compound was incubated with sodium linoleate (0.1 mM) and 0.2 mL of soybean lipoxygenase solution (1/9 × 10^−4 w/v in saline) in buffer pH 9 (tris) and at room temperature. […] The results are given in Table 1 expressed as IC50 values or % inhibition at 100 μM.

[3] = biological target: T2, pancreatic bovine trypsin (Bos taurus, UniProt P00760); test: Inhibition of trypsin induced proteolysis in vitro; format: biochemical; conditions: bovine albumin substrate, pH 7.6, 37 °C; read-out: IC50 μM Trypsin Inh.
T2 construct: purchased Sigma Chemical, Co. (St. Louis, MO, USA)
T2 sequence (P00760 24-246): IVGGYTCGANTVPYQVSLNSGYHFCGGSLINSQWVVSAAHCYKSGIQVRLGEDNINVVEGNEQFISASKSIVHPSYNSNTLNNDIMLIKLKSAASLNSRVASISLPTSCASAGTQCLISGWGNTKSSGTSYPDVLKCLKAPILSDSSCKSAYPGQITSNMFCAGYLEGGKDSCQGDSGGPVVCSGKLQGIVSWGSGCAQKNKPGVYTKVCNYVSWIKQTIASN
Description: All chemicals, solvents, chemical and biochemical reagents were of analytical grade and purchased from commercial sources (Merck, Merck KGaA, Darmstadt, Germany, Fluka Sigma-Aldrich Laborchemikalien GmbH, Hannover, Germany, Alfa Aesar, Karlsruhe, Germany and Sigma, St. Louis, MO, USA). Soybean lipoxygenase, pancreatic bovine trypsin, sodium linoleate, free radical DPPH and 2,2-azinobis-2-methyl-propanimidamine HCl (AAPH) were obtained from Sigma Chemical, Co. (St. Louis, MO, USA), carrageenin, type K, was commercially available. All starting materials were obtained from commercial sources and used without further purification.
The test was carried out according to a modified Kunitz method. Bovine albumin was used as substrate for trypsin. The reaction mixture consisted of 0.075 mg/mL trypsin (200 μL) and 780 μL of phosphate buffer pH 7.6 (including the tested compounds (20 μL in DMSO, final concentration 100 μM) preincubated at 37 °C for 20 min and then 1 mL of albumin (stock solution 6 g/100 mL in phosphate buffer 0.1 M, pH 7.6) was added and incubated at 37 °C for 30 min. After the incubation 1 mL of 5% trichloroacetic acid was added to the incubated solution to stop the enzyme’s reaction and allowed to set at room temperature for 1 h. Then the solution was filtered by filter paper and the absorption of the filtered solution was measured at 280 nm. Salicylic acid was used as a reference compound (Table 1).

esterase = test: In vitro esterase activity on hybrids; format: in vitro ADME; conditions: 1 mM, phosphate buffer pH 7.8, 37 °C, 90 min and 24 h
Description: Representative hybrid molecules are subjected to an esterase activity in vitro. 100 μL of 1 mg/mL 0.001 N hydrochloric acid of esterase solution was added to 1,250 μL of phosphate buffer (0.1 M) pH 7.8 including the tested compounds (150 μL in DMSO, final concentration 1 mM) and incubated at 37 °C for 90 min. The incubated solution was allowed to set at room temperature. Then, the absorption was measured at 256 nm. The measurement was repeated after 24 h of incubation at 37 °C.

[4] = TLC screening for free radical scavengers (DPPH); conditions: plates sprayed with 0.1 mM DPPH ethanolic solution
Description: TLC was used for screening the synthesized hybrids as radical scavengers. The compound solutions in DMSO were spotted onto a silica gel F254 precoated plate and developed using […] and 95% CHCl3 as developing solvents. After development the plates were air-dried and sprayed with 0.1 mM DPPH ethanolic solution for detecting the compounds with rapid scavenging properties.

[5] = tested on: acetic acid-induced writhing; test: Antinociceptive screen (writhing test); format: in vivo, Wistar rats; conditions: Rattus norvegicus, ip, 0.5 h, i.p. 30 min before 0.6% acetic acid, writhes counted over 30 min, read-out: % ANA (in vivo analgesic-antinociceptive activity)
Description: (§1) Anti-inflammatory tests were conducted on Fisher-344 inbred rats of ca. 200 g body weight whereas antinociception and motor and sensory functions after sciatic nerve crash were performed on Wistar rats. Both sexes were used. Females pregnant were excluded. Each group was composed of 6 animals. The animals, which have been bred in our laboratory, were housed under standard conditions and received a diet of commercial food pellets and water ad libitum during the maintenance. Our studies were carried out in accordance with recognised guidelines on animal experimentation.
[…] Controls received the liquid vehicle only. All the in vivo experiments were repeated at least in triplicate and were subjected to statistic analysis using the student’s t-test.
The writhing reflex was used. The test compounds were administered i.p. 30 min prior to the i.p. administration of 1 mL/100 g body weight of 0.6% acetic acid. […] After 5 min, the number of stretches characterized by repeated contractions of the abdominal musculature accompanied by extension of the hind limbs was counted every 5 min for the next 30 min. […] The % antinociceptive activity (a:a) was calculated as: % a:a = (n − n'/n) × 100 (a: a analgesic activity, n average number of writhes of control group, n' average number in the test group).

[6] = tested on: carrageenin-induced rat paw oedema; test: Inhibition of the carrageenin-induced rat paw oedema; format: in vivo, Fisher-344 rats; conditions: 0.01 mmol/1 kg, i.p., 3.5 h after carrageenin
Description: as §1
The tested compounds 0.01 mmol/kg body weight were suspended in water with few drops of Tween 80 and ground in a mortar before use. Controls received the liquid vehicle only. All the in vivo experiments were repeated at least in triplicate and were subjected to statistic analysis using the student’s t-test.
Oedema was induced in the right hind paw of Fisher 344 rats by the intradermal injection of 0.1 mL 2% carrageenin in water. Each group was composed of 6 animals which they were entirely fasted during the experiment period. The tested compounds 0.01 mmol/kg body weight, were given intraperitoneally simultaneously with the carrageenin injection. The rats were euthanized 3.5 h after carrageenin injection. The difference between the weight of the injected and not-injected paws was calculated for each animal. The change in paw weight was compared with that in control animals (treated with water) and expressed as a percent inhibition of the oedema (ICPE % values in Table 1). Indomethacin 0.01 mmol/kg was used as reference compound. ICPE % are the mean values from two different experiments with a standard error of the mean less than 10%.

sciatic nerve crush = test: Sciatic Functional Index after sciatic nerve crush; format: in vivo, Wistar rats
Description: SFI is the current standard for measuring functional recovery following rat sciatic nerve crush. Its calculation involves the measurement of wide-ranging relationships between feet and toes of the hindlimb of recovering animals. SFI values close to −100 indicate severe damage, while SFI values close to 0 indicate normal function. The treated rats improved their walk and the relationship between feet and toes of the crushed hindlimbs starting from day 14 to day 21.
One day prior to the surgery and the behavioral testing, Wistar rats were handled by the investigators and introduced to the testing environment for a brief period of time. Rats were anesthetized with chloral hydrate 4.5% (1 mL/100 g). […] After the exposure, the nerve was crushed once for 30 s at standardized force. The muscle was reapproximated and the skin incision was closed using 6 to 0 sutures. The examination of the loss of sensory and motor function in the operated limb established the crush completeness. Digits in the operated limb were pinched with a blunt forceps. Absence of foot withdrawal and vocalization was recorded as loss of sensory and motor function. Animals were placed under a heating lamp until they recovered from the anesthesia and they returned to their home cages.
The tested solutions were freshly prepared on surgery day (day 0).
[…] The day of the surgery is considered as day 0 [36, 37, 38].
In the present study, the plantar surfaces of the hindlimbs of the rats were impregnated with ink and then the animals were allowed to walk on a paper along a corridor, leaving footprints during walking.
A wooden corridor (1 m × 8 cm) with raised sidewalls was used. Two and a half white paper strips (40 × 7.5 cm) were placed along the corridor and were fixed with adhesive tape closely together and at the base and the sidewalls of the corridor. Each rat was trained to walk steadily along the corridor without stops until it made three at least successful efforts of continuous walking. The footprints were allowed to dry and were then converted into digital images using a computer and a high resolution scanner. The image processing was done by using the ImageJ. This is an open-source image analysis software created in 1997 by Rayne Rasband (National Institute of Health), widely used in medical applications, especially neuroscience, for measuring distances and surface and plotting the data. The footprints were analyzed as described by Bain et al. in measurements were included: • (i) print length (PL): distance from the heel to the third toe, • (ii) toe spread (TS) distance from the first to the fifth toe on both sides and • (iii) intermediate toe spread (ITS) the distance between the middle of the second and fourth toe
All measurements were taken both from the experimental (EPL, ETS, EIT) and the normal (NPL, NTS, NIT) side. The formula used to calculate SFI was the following: SFI = −38.3 (EPL − NPL)/NPL + 109.5 (ETS − NTS)/NTS + 13.3 (EIT − NIT)/NIT − 8.8

[7] = single i.p. dose 0.01 mmol/mL/kg, 8 h after surgery

SMILES	RM (±S.D.) [1]	AAPH % (% inhibition of lipid peroxidation) [2] [%]	IC50 (soybean lipoxygenase) [µM]	IC50 [3] [µM]	hydrolysis of the ester group by esterase (esterase)	scavenging of DPPH (visual, TLC) [4]	IC50 (soybean lipoxygenase; sodium linoleate 0.1 mM, tris buffer pH 9, room temperature, read-out: IC50 μM LOX Inh.) [µM]	inhibition in vivo at 0.01 mmol/0.1 kg [5] [%]	% ICPE (carrageenin-induced rat paw oedema inhibition) [6]	% ICPE (carrageenin-induced rat paw oedema inhibition) ([6]; listed as paracetamol) [%]	SFI, Day before Crash (sciatic nerve crush; baseline before surgery and dosing)	SFI, Day-1 (sciatic nerve crush; [7])	SFI, Day-7 (sciatic nerve crush; [7])	SFI, Day-14 (sciatic nerve crush; [7])	SFI, Day-21 (sciatic nerve crush; [7])
O=C(/C=C/c1cccc(Oc2ccccc2)c1)Oc1cc(=O)oc2ccccc12 [Compound 2b, (E)-2-Oxo-2H-chromen-4-yl 3-(3-phenoxyphenyl)acrylate]	−0.661± 0.008	100	100	100	hydrolyzed										
CC(Cc1ccc(O)c(O)c1)C(C)Cc1ccc(O)c(O)c1 (stereo not shown) [NDGA, nordihydroguaiaretic acid]						white spots on a purple background									
CC(=O)Nc1ccc(O)cc1 [Paracetamol, 4-acetamidophenol, reference compound]		91					82	66	21 * %	21	−12	−93.3	−93.3	−36	−18.5
